The values that follow come from PMC3183387 (Journal of the American Chemical Society, 2011).

Assay [1] concerns Tyr181Cys Variant Strain of HIV-1. As to conditions: result in words; cited from earlier work.
In assay [2] the test system is variant HIV strain that encodes the Tyr181Cys (Y181C) mutation of HIV-RT. Nature of the assay: Anti-HIV activity against Tyr181Cys variant strain in MT-2 cells. The assay is classed as cell-based, HIV-1. To be noted: result in words.

Consider `CC(C)Nc1cccnc1N1CCN(C(=O)c2cc3cc(NS(C)(=O)=O)ccc3[nH]2)CC1` [delavirdine], for which, in assay [1], the “activity towards Y181C containing variants” value was “do not have useful activity”.

For `Cc1ccnc2c1NC(=O)c1cccnc1N2C1CC1` [nevirapine], the “activity against viral strains containing the Tyr181Cys (Y181C) mutation” value in assay [2] was “no activity”. The “activity towards Y181C containing variants” value in assay [1] is “do not have useful activity”.
